Measurements reported in patent publication US8519163B2, “Anti-tumor activity of AECHL-1, novel triterpenoid isolated from Ailanthus excelsa in vitro and in vivo” (National Centre for Cell Science, priority 2008, dated 2013).

Tests used:
[1] = tested on: B16F10 cells; assay: Cell cycle analysis by flow cytometry; format: cell-based, mouse; settings: for Phase of cell cycle (% of cells) G1 / Phase of cell cycle (% of cells) G2/M / Phase of cell cycle (% of cells) S / Phase of cell cycle (% of cells) Sub G0: 24 h
Procedure: The cell cycle analysis of MCF-7, B16F10 MDA-MB-231 and PC3 cells was done by flow cytometry. […] Cells were harvested with trypsin (0.05%), 0.02% EDTA, 0.05% glucose and a single-cell suspension was prepared. Cells were washed and were pelleted by centrifugation (1000×g for 2 min) and fixed in 70% ethanol while vortexing and stored at 4° C. for 1 hour. Fixed cells were pelleted by centrifugation, to remove ethanol and washed with PBS. Cells were re-suspended in PBS containing 50 μg/ml propidium iodide, 0.1 g/L RNase and 1% BSA, incubated for 30 min at 37° C. in the dark, and analyzed with flow cytometry (FACS Vantage-BD Sciences, USA) equipped with an argon laser at 488 nm. The data was analyzed using Cell Quest software for determining the percent population in different phases of cell cycle.

[2] = tested on: HEK 293 (Human embryonic kidney cell line); assay: Cell viability assay (MTT); format: cell-based; settings: HEK 293, compared with tumor cell lines
Procedure: The cytotoxic effect of AECHL-1 on the HEK 293, B16F10, PC3, MCF 7 and MDA-MB-231 cells was measured by MTT assay as described in previous studies. The cells were dispensed in 96-well, flat bottom microtiter plates (Becton Dickinson Labware) at a density of 5×10^3 cells each well. […] MTT [3-(4,5-dimethylthiazol-2yl)-2,5-diphenyl tetrazolium bromide] solution (5 mg/ml in PBS) was added at the end of experiment to each well to a final concentration of 0.5 mg/ml, and the cultures were incubated for further 4 h. The resulting formazan crystals were dissolved in 100 μl dimethylsulfoxide (DMSO) and absorbance was measured in a microplate reader at 570 nm (Molecular Devices, Spectra MAX 250). The cytotoxic effect was expressed as a relative percentage of inhibition calculated as follows: Relative inhibition(%)=[(A570 control−A570 AECHL-1)A570 control]×100 Cell Proliferation Assay

[3] = tested on: cellular microtubule network; assay: Immunocytochemistry, microtubule network in MCF-7 cells; format: cell-based, human; settings: paclitaxel 1-20 μM, AECHL-1 2-40 μM, 24 h, confocal microscopy
Procedure: Immunocytochemistry was performed as described previously. […] Cells were incubated with primary anti-p53 antibodies (1:100; Abcam) and anti-α-tubulin antibodies (1:10000; Sigma chemical Co.) for 1 hour at room temperature. After washing with PBS, cells were incubated with CY2-conjugated secondary antibodies (1:200; Chemicon, Germany) and Alexa-conjugated secondary antibodies (1:10000; Sigma, St. Louis, Mo.) for 45 minutes and nuclear staining was done with DAPI. Images were captured under confocal microscope.
The tumor suppressor p53 plays a critical role in preventing human cancer formation. It translocates into the nucleus and works as a transcription factor by upregulating cell cycle regulatory proteins and induces cell cycle arrest and/or programmed cell death (apoptosis) (11). […] After 24 h of incubation, the p53 translocation in the nucleus (green fluorescence) and microtubule network (red fluorescence) was visualized by confocal microscopy.

[4] = tested on: B16F10 melanoma cells; assay: In vivo allograft tumor model; set-up: species or system C57B1/6 mice; settings: for tumor weight to body weight ratio: after 12 days treatment, vs control (p<0.01); for tumor size reduced by / tumor volume on day 24: B16F10 allograft; for tumor size reduced by: day 18; for histological examination of tumor tissue: C57 mice
Procedure: The data reported for tumor volumes are expressed as mean±SEM. Statistical differences were determined by ANOVA and post test applied was Tukey-Kramer multiple comparison Test. For Tumor to body weight ratio post test applied was Dunnett multiple comparisons test.

[5] = tested on: CDK4; assay: Western blot of tumor homogenates of C57B1/6 mice; format: in vivo, mouse; settings: tumor of C57 mice
Procedure: (§1) Prior to immunoblot analysis, tumor segments stored at −80° C. were thawed, washed, minced and homogenized in lysis buffer (120 mM NaCl, 1.0% Triton X 100, 20 mM Tris-HCl, pH 7.5, 10% glycerol, 2 mM EDTA, Protease inhibitor cocktail, Roche) using a Polytron homogenization device. Lysates were incubated at 4° C. for 30 min and centrifuged at 14000 r.p.m. in an Eppendorf micro centrifuge for 15 min. Proteins were isolated in solublised form. Protein concentrations were measured by Bradford assay (Bio-Rad protein assay kit) and stored at −80° C. For immunobloting, 60 μg of total protein from the tumor lysates were used Proteins were resolved in a 10% SDS-polyacrylamide gel, transferred to the immobilon-P […] membrane and blocked with 5% (wt/v) non fat dry milk powder (Sigma) in TBST buffer (10 mM Tris pH 7.6, 150 mM NaCl and 0.1% Tween-20) for three hours at room temperature and then incubated with primary antibodies p53, pp53, p21, Cyclin D1, CDK4 and c-Myc in TBST for 3 h and with actin for 1 hour at room temperature. The membrane was incubated further with the secondary antibody HRP-conjugated (BD Bioscience) at 1:10000 dilution for 1 h at room temperature. Following each antibody incubation, the membrane was washed thoroughly with TBST buffer 3 times. The protein bands were visualized using the enhanced chemiluminescence substrate reaction (Pierce) according to the manufacturer's instructions using X-OMAT AR5 film (Kodak)

[6] = tested on: Cyclin D1; assay: Western blot of tumor homogenates of C57B1/6 mice; format: in vivo, mouse; settings: tumor of C57 mice
Procedure: as §1

[7] = tested on: c-Myc; assay: Western blot of tumor homogenates of C57B1/6 mice; format: in vivo, mouse; settings: tumor of C57 mice
Procedure: as §1

[8] = tested on: p21; assay: Western blot of tumor homogenates of C57B1/6 mice; format: in vivo, mouse; settings: tumor of C57 mice
Procedure: as §1

[9] = tested on: p53; assay: Western blot of tumor homogenates of C57B1/6 mice; format: in vivo, mouse; settings: tumor of C57 mice, compared with control
Procedure: as §1

[10] = tested on: pp53; assay: Western blot of tumor homogenates of C57B1/6 mice; format: in vivo, mouse; settings: tumor of C57 mice
Procedure: as §1

## C=C1C(OCC)C2(O)OCC34C(=C(C)c5c(C)cc(O)c(OCC)c5C23)OC(=O)C(OC(=O)C(C)(O)CC)C14 (stereo not drawn) [AECHL-1]
[1]; B16F10, 10 μM
  Phase of cell cycle (% of cells) G1: 56.55%
  Phase of cell cycle (% of cells) G2/M: 23.02%
  Phase of cell cycle (% of cells) S: 20.46%
  Phase of cell cycle (% of cells) Sub G0: 0.39%
[1]; B16F10, 20 μM
  Phase of cell cycle (% of cells) G1: 57.67%
  Phase of cell cycle (% of cells) G2/M: 23.60%
  Phase of cell cycle (% of cells) S: 18.40%
  Phase of cell cycle (% of cells) Sub G0: 0.65%
[1]; B16F10, 40 μM
  Phase of cell cycle (% of cells) G1: 72.08%
  Phase of cell cycle (% of cells) G2/M: 14.73%
  Phase of cell cycle (% of cells) S: 11.43%
  Phase of cell cycle (% of cells) Sub G0: 2.05%
[1]; B16F10, 100 μM
  Phase of cell cycle (% of cells) G1: 64.04%
  Phase of cell cycle (% of cells) G2/M: 13.23%
  Phase of cell cycle (% of cells) S: 15.41%
  Phase of cell cycle (% of cells) Sub G0: 7.82%
[1]; B16F10 cells
  phase of cell growth arrest: G0/G1 phase arrest
[2]
  cytotoxicity in normal cells: less cytotoxicity
[3]
  effect on microtubule network: thickening and increased density of microtubules
[4]; 50 μg
  tumor weight to body weight ratio: significant reduction
  tumor volume on day 24: increased
  histological examination of tumor tissue: Tumor cell density was found to be decreased with occurrence of picnotic/necrotic cells in the center of the tumor
[4]; 100 μg
  tumor weight to body weight ratio: significant reduction
  tumor volume on day 24: increased
  histological examination of tumor tissue: increase in necrotic nuclei through out the tumor area, with disappearance of neovasulization and hemorrhagic areas
[4]; 50 μg intra-tumor for 12 days
  tumor size reduced by: 44.303±5.20%
[4]; 100 μg intra-tumor for 12 days
  tumor size reduced by: 51.014±1.27%
[5]
  expression of CDK4: reduced the expression
[6]
  expression of cyclin D1: reduced the expression
[7]
  expression of c-Myc: downragulation
[8]; 50 μg
  expression of p21: decrease
[8]; 100 μg
  expression of p21: increased
[9]; 50 μg
  p53 protein expression: increasing expression
[9]; 100 μg
  p53 protein expression: increasing expression
[10]; 50 μg
  phosphorylation of p53 (pp53): increasing
[10]; 100 μg
  phosphorylation of p53 (pp53): decreased
